Data: PubChem BioAssay (NCI)
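48-hour exposure; five concentrations; linearly interpolated endpoints. TGI: total growth inhibition.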

Tests used:
Assay in all cases: inhibition of tumour cell growth, NCI panel, 48 h
HS 578T breast = tested on: HS 578T breast
A549 NSCLC = tested on: A549 NSCLC
MDA-MB-435 = tested on: MDA-MB-435
SF-268 CNS = tested on: SF-268 CNS
OVCAR-8 ovarian = tested on: OVCAR-8 ovarian
SN12C renal = tested on: SN12C renal
SF-539 CNS = tested on: SF-539 CNS
SNB-19 CNS = tested on: SNB-19 CNS
MALME-3M melanoma = tested on: MALME-3M melanoma
UO-31 renal = tested on: UO-31 renal
M14 melanoma = tested on: M14 melanoma
U251 CNS = tested on: U251 CNS
ACHN renal = tested on: ACHN renal
KM12 colon = tested on: KM12 colon
MDA-MB-231 breast = tested on: MDA-MB-231 breast
DU-145 prostate = tested on: DU-145 prostate
HCT-116 colon = tested on: HCT-116 colon
OVCAR-5 ovarian = tested on: OVCAR-5 ovarian
TK-10 renal = tested on: TK-10 renal
EKVX NSCLC = tested on: EKVX NSCLC
T-47D breast = tested on: T-47D breast
HCC-2998 colon = tested on: HCC-2998 colon
RXF 393 renal = tested on: RXF 393 renal
UACC-257 melanoma = tested on: UACC-257 melanoma
HOP-62 NSCLC = tested on: HOP-62 NSCLC
HT29 colon = tested on: HT29 colon
NCI-H23 lung = tested on: NCI-H23 lung
UACC-62 melanoma = tested on: UACC-62 melanoma
SW-620 colon = tested on: SW-620 colon
SF-295 CNS = tested on: SF-295 CNS
SK-MEL-5 melanoma = tested on: SK-MEL-5 melanoma
NCI-H522 lung = tested on: NCI-H522 lung
OVCAR-4 ovarian = tested on: OVCAR-4 ovarian
HCT-15 colon = tested on: HCT-15 colon
A498 renal = tested on: A498 renal
SK-MEL-2 melanoma = tested on: SK-MEL-2 melanoma
IGROV1 ovarian = tested on: IGROV1 ovarian
NCI-H226 lung = tested on: NCI-H226 lung
CAKI-1 renal = tested on: CAKI-1 renal
CCRF-CEM leukemia = tested on: CCRF-CEM leukemia
HOP-92 NSCLC = tested on: HOP-92 NSCLC
OVCAR-3 ovarian = tested on: OVCAR-3 ovarian
786-0 renal = tested on: 786-0 renal
COLO 205 colon = tested on: COLO 205 colon
SK-OV-3 ovarian = tested on: SK-OV-3 ovarian
MDA-N = tested on: MDA-N
LOX IMVI melanoma = tested on: LOX IMVI melanoma
PC-3 prostate = tested on: PC-3 prostate
SK-MEL-28 melanoma = tested on: SK-MEL-28 melanoma
MCF7 breast = tested on: MCF7 breast
NCI/ADR-RES ovarian = tested on: NCI/ADR-RES ovarian
RPMI-8226 leukemia = tested on: RPMI-8226 leukemia
HL-60(TB) leukemia = tested on: HL-60(TB) leukemia
MOLT-4 leukemia = tested on: MOLT-4 leukemia
SNB-75 CNS = tested on: SNB-75 CNS
NCI-H460 lung = tested on: NCI-H460 lung
K-562 leukemia = tested on: K-562 leukemia
BT-549 breast = tested on: BT-549 breast
SR leukemia = tested on: SR leukemia

CSc1nc(-c2ccccc2)nc(C(C#N)C#N)n1
TGI (HS 578T breast): > 100 µM | TGI (A549 NSCLC): > 100 µM | TGI (MDA-MB-435): > 100 µM | TGI (SF-268 CNS): > 100 µM | TGI (OVCAR-8 ovarian): > 100 µM | TGI (SN12C renal): > 100 µM | TGI (SF-539 CNS): > 100 µM | TGI (SNB-19 CNS): > 100 µM | TGI (MALME-3M melanoma): > 100 µM | TGI (UO-31 renal): > 100 µM | TGI (M14 melanoma): > 100 µM | TGI (U251 CNS): > 100 µM | TGI (ACHN renal): > 100 µM | TGI (KM12 colon): > 100 µM | TGI (MDA-MB-231 breast): > 100 µM | TGI (DU-145 prostate): > 100 µM | TGI (HCT-116 colon): > 100 µM | TGI (OVCAR-5 ovarian): > 100 µM | TGI (TK-10 renal): > 100 µM | TGI (EKVX NSCLC): > 100 µM | TGI (T-47D breast): > 100 µM | TGI (HCC-2998 colon): > 100 µM | TGI (RXF 393 renal): > 100 µM | TGI (UACC-257 melanoma): > 100 µM | TGI (HOP-62 NSCLC): > 100 µM | TGI (HT29 colon): > 100 µM | TGI (NCI-H23 lung): > 100 µM | TGI (UACC-62 melanoma): > 100 µM | TGI (SW-620 colon): > 100 µM | TGI (SF-295 CNS): > 100 µM | TGI (SK-MEL-5 melanoma): > 100 µM | TGI (NCI-H522 lung): > 100 µM | TGI (OVCAR-4 ovarian): > 100 µM | TGI (HCT-15 colon): > 100 µM | TGI (A498 renal): > 100 µM | TGI (SK-MEL-2 melanoma): > 100 µM | TGI (IGROV1 ovarian): > 100 µM | TGI (NCI-H226 lung): > 100 µM | TGI (CAKI-1 renal): > 100 µM | TGI (CCRF-CEM leukemia): > 100 µM | TGI (HOP-92 NSCLC): > 100 µM | TGI (OVCAR-3 ovarian): > 100 µM | TGI (786-0 renal): > 100 µM | TGI (COLO 205 colon): > 100 µM | TGI (SK-OV-3 ovarian): > 100 µM | TGI (MDA-N): > 100 µM | TGI (LOX IMVI melanoma): > 100 µM | TGI (PC-3 prostate): > 100 µM | TGI (SK-MEL-28 melanoma): > 100 µM | TGI (MCF7 breast): > 100 µM | TGI (NCI/ADR-RES ovarian): > 100 µM | TGI (RPMI-8226 leukemia): > 100 µM | TGI (HL-60(TB) leukemia): > 100 µM | TGI (MOLT-4 leukemia): > 100 µM | TGI (SNB-75 CNS): > 100 µM

COc1ccc(/C=C2/SC(=Nc3ccccc3)N(NC(=O)Cc3ccccc3)C2=O)c(OC)c1
TGI (HS 578T breast): > 100 µM | TGI (A549 NSCLC): > 100 µM | TGI (MDA-MB-435): > 100 µM | TGI (NCI-H460 lung): > 100 µM | TGI (K-562 leukemia): > 100 µM | TGI (SF-268 CNS): > 100 µM | TGI (OVCAR-8 ovarian): > 100 µM | TGI (SN12C renal): > 100 µM | TGI (SF-539 CNS): > 100 µM | TGI (SNB-19 CNS): > 100 µM | TGI (UO-31 renal): > 100 µM | TGI (M14 melanoma): > 100 µM | TGI (U251 CNS): > 100 µM | TGI (ACHN renal): > 100 µM | TGI (KM12 colon): > 100 µM | TGI (MDA-MB-231 breast): > 100 µM | TGI (DU-145 prostate): > 100 µM | TGI (HCT-116 colon): > 100 µM | TGI (OVCAR-5 ovarian): > 100 µM | TGI (TK-10 renal): > 100 µM | TGI (EKVX NSCLC): > 100 µM | TGI (T-47D breast): > 100 µM | TGI (HCC-2998 colon): > 100 µM | TGI (RXF 393 renal): > 100 µM | TGI (UACC-257 melanoma): > 100 µM | TGI (HOP-62 NSCLC): > 100 µM | TGI (HT29 colon): > 100 µM | TGI (NCI-H23 lung): > 100 µM | TGI (UACC-62 melanoma): > 100 µM | TGI (SW-620 colon): > 100 µM | TGI (SF-295 CNS): > 100 µM | TGI (SK-MEL-5 melanoma): > 100 µM | TGI (OVCAR-4 ovarian): > 100 µM | TGI (HCT-15 colon): > 100 µM | TGI (A498 renal): > 100 µM | TGI (SK-MEL-2 melanoma): > 100 µM | TGI (IGROV1 ovarian): > 100 µM | TGI (NCI-H226 lung): > 100 µM | TGI (CCRF-CEM leukemia): > 100 µM | TGI (HOP-92 NSCLC): 67.4 µM | TGI (OVCAR-3 ovarian): > 100 µM | TGI (786-0 renal): > 100 µM | TGI (COLO 205 colon): > 100 µM | TGI (SK-OV-3 ovarian): > 100 µM | TGI (MDA-N): > 100 µM | TGI (SK-MEL-28 melanoma): > 100 µM | TGI (MCF7 breast): > 100 µM | TGI (NCI/ADR-RES ovarian): > 100 µM | TGI (RPMI-8226 leukemia): > 100 µM | TGI (MOLT-4 leukemia): > 100 µM | TGI (SNB-75 CNS): > 100 µM

[C-]#[N+]C(=C\c1ccc(O)cc1)/C(=C/c1ccc(O)cc1)[N+]#[C-]
TGI (A549 NSCLC): > 69.9 µM | TGI (MDA-MB-435): > 19.8 µM | TGI (NCI-H460 lung): > 28.6 µM | TGI (K-562 leukemia): > 100 µM | TGI (SF-268 CNS): > 100 µM | TGI (OVCAR-8 ovarian): > 20.5 µM | TGI (SN12C renal): 6.37 µM | TGI (SNB-19 CNS): > 100 µM | TGI (MALME-3M melanoma): 4.39 µM | TGI (M14 melanoma): > 20.4 µM | TGI (U251 CNS): > 23.7 µM | TGI (ACHN renal): > 100 µM | TGI (KM12 colon): > 22.3 µM | TGI (BT-549 breast): > 23.1 µM | TGI (MDA-MB-231 breast): 6.71 µM | TGI (DU-145 prostate): 7.23 µM | TGI (HCT-116 colon): 15.8 µM | TGI (OVCAR-5 ovarian): > 31.8 µM | TGI (TK-10 renal): > 100 µM | TGI (EKVX NSCLC): > 100 µM | TGI (T-47D breast): 12.1 µM | TGI (HCC-2998 colon): > 50.6 µM | TGI (RXF 393 renal): 4.46 µM | TGI (UACC-257 melanoma): 6.98 µM | TGI (HOP-62 NSCLC): > 100 µM | TGI (HT29 colon): > 73.8 µM | TGI (NCI-H23 lung): 5.93 µM | TGI (UACC-62 melanoma): 3.7 µM | TGI (SW-620 colon): > 34.3 µM | TGI (SF-295 CNS): > 100 µM | TGI (SK-MEL-5 melanoma): 5.36 µM | TGI (NCI-H522 lung): > 33.1 µM | TGI (OVCAR-4 ovarian): > 100 µM | TGI (HCT-15 colon): > 100 µM | TGI (A498 renal): > 24.8 µM | TGI (IGROV1 ovarian): > 23.6 µM | TGI (NCI-H226 lung): > 22.7 µM | TGI (CAKI-1 renal): 5.63 µM | TGI (CCRF-CEM leukemia): 6.55 µM | TGI (HOP-92 NSCLC): > 100 µM | TGI (OVCAR-3 ovarian): > 100 µM | TGI (786-0 renal): > 100 µM | TGI (COLO 205 colon): 56.6 µM | TGI (SK-OV-3 ovarian): > 100 µM | TGI (MDA-N): 3.35 µM | TGI (SR leukemia): 5.86 µM | TGI (LOX IMVI melanoma): 5.16 µM | TGI (PC-3 prostate): > 26.7 µM | TGI (SK-MEL-28 melanoma): > 22.4 µM | TGI (MCF7 breast): > 36.7 µM | TGI (NCI/ADR-RES ovarian): > 24.5 µM | TGI (RPMI-8226 leukemia): > 95.2 µM | TGI (HL-60(TB) leukemia): > 24 µM | TGI (MOLT-4 leukemia): 7.67 µM | TGI (SNB-75 CNS): 6.83 µM
